Measured values from PMC12435777, “Assessing Acetyl-Coenzyme A Carboxylase Activity and Inhibition in Caenorhabtidis elegans Using a Partially Purified Protein Extract” (Analytical Chemistry, 2025).

Target: acetyl-CoA carboxylase (ACC, POD-2) (Caenorhabditis elegans, UniProt H2L0M0)
Test: real-time HPLC and NMR kinetics of malonyl-CoA formation with partially purified enzyme extract; Ki estimated from the change in KM
Type: biochemical

acetyl-CoA carboxylase (ACC, POD-2), sequence (H2L0M0 entry or part of it): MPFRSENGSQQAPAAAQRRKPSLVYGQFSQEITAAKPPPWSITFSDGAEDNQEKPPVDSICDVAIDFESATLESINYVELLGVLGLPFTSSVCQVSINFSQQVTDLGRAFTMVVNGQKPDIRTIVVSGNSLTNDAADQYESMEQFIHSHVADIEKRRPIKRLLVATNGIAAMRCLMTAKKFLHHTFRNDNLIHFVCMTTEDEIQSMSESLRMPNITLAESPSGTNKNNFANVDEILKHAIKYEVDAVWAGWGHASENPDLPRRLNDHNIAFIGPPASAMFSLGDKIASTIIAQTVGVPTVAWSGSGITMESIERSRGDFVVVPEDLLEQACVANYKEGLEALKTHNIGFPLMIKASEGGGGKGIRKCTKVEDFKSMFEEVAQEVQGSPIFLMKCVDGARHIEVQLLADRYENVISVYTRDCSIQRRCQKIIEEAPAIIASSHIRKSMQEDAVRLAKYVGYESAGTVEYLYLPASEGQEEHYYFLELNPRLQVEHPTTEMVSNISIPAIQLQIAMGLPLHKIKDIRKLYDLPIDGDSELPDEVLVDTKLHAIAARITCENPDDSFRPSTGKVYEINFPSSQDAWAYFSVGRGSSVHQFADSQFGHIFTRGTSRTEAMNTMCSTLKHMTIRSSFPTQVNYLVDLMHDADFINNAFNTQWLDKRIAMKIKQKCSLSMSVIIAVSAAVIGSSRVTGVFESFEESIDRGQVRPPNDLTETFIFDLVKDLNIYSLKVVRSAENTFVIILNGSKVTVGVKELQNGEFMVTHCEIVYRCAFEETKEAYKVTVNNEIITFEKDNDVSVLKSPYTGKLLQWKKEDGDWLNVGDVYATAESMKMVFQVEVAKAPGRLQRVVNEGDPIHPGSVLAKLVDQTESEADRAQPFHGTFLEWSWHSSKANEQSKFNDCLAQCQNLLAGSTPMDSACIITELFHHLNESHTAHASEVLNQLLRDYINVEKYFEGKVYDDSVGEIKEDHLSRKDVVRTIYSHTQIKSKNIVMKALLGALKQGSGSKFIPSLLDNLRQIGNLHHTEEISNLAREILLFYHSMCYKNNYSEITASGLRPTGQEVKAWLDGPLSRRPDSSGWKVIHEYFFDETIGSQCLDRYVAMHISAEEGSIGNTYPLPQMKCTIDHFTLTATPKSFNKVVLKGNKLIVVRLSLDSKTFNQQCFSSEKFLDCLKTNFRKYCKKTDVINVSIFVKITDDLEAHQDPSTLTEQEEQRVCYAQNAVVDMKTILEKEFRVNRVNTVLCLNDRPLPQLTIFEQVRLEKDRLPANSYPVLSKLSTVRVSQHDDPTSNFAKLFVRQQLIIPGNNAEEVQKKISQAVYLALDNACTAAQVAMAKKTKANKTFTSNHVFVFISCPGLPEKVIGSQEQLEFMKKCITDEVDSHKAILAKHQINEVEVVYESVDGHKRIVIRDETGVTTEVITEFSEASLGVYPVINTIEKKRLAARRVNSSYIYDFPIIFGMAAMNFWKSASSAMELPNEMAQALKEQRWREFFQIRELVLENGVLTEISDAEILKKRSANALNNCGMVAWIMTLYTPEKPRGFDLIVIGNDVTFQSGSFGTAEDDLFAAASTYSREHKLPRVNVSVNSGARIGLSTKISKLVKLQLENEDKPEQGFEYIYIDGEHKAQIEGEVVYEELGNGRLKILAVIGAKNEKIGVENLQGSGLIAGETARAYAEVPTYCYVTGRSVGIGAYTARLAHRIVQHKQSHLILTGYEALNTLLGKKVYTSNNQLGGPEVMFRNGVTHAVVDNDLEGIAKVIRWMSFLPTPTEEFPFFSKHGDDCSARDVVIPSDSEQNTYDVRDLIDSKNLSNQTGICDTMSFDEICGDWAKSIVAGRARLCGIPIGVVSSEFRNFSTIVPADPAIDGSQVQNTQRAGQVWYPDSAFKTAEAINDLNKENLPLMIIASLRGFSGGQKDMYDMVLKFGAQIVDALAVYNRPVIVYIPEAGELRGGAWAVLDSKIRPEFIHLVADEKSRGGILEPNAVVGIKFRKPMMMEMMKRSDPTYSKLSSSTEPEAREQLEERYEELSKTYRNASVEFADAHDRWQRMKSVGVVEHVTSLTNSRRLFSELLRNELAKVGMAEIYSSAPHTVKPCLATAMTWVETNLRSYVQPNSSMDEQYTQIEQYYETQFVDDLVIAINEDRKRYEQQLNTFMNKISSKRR

C=CCCCCCCCCCCC[C@@H](O)C[C@@H](O)COC(C)=O [avocadene acetate]
Ki: ~12.5 µM
